This is an account of results in patent US8507199B2, “Multi-color time resolved fluorophores based on macrocyclic lanthanide complexes” (Lumiphore, Inc., priority 2007, dated 2013).

Values joined by “and” are separate entries in the source; they are usually repeats but may differ in a detail not shown here. Equal values may be shown once.

The nature of data set [1]: Luminescence lifetime decay (biexponential fit) of FITC-Tb-BH22IAM conjugate. The settings on record: Tb-coordinated conjugate, excitation at BH22IAM absorption (~340 nm), emission at 520 nm. Format: physicochemical. An excerpt: A short lifetime corresponding to the direct excitation of fluorescein (3.92 nsec) and a long lifetime corresponding to excitation of BH22IAM and energy transfer to fluorescein (524 nsec).
In another exemplary embodiment, the compounds of the invention emit light at an emission wavelength of the fluorophore attached to the metal chelate through the acceptor-linker. […] For example, compound 3, when coordinated to terbium and excited at a BH22IAM absorption wavelength (˜340 nm), the metal chelate emits at 520 nm, the characteristic wavelength of fluorescein with a lifetime of 524 nsec. The new lifetime is over 100-fold longer than the lifetime for a fluorescein solution that is directly excited (<5 nsec).
The 524 nsec of the conjugated fluorescein is acquired through direct excitation of the Tb-BH22IAM complex at 340 nm, which normally has a very long lifetime (2.6 msec), followed by energy transfer to the conjugated fluorescein and emission at the characteristic wavelength for fluorescein (520 nm).

Data set [2] can be described thus: Steady-state absorption and emission spectra. It is filed as physicochemical. An excerpt:
FIG. 8 is a steady-state absorption spectrum of FITC-BH22IAM conjugate.

As to `O=C(O)c1cc(NC(=S)NCCCCC2CN3CCNC(=O)c4cccc(c4O)C(=O)NCCN(CCNC(=O)c4cccc(c4O)C(=O)N2)CCN2CCNC(=O)c4cccc(c4O)C(=O)NCCN(CCNC(=O)c4cccc(c4O)C(=O)NCC2)CC3)ccc1-c1c2ccc(=O)cc-2oc2cc(O)ccc12` (stereo not drawn) [Compound 4a], the “long lifetime corresponding to excitation of BH22IAM and energy transfer to fluorescein” value in data set [1] was 520 nsec and 524 nsec. For the same compound, the absorption maxima in data set [2] (340 nm assigned to BH22IAM, 490 nm to fluorescein) is 340 nm and 490 nm. In addition, in data set [2] (excitation at BH22IAM absorption (~340 nm)), the “emission wavelength / emission maxima” value is on record as 520 nm.
